PubChem BioAssay (NCI)
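GI50: concentration for 50% inhibition of growth. Definition used: TGI = concentration required for complete inhibition of growth.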

Tests used:
Assay in all cases: DTP human tumour cell line panel, 384-well format
OVCAR-4 ovarian = system: OVCAR-4 ovarian
NCI-H23 lung = system: NCI-H23 lung
RPMI-8226 leukemia = system: RPMI-8226 leukemia
BT-549 breast = system: BT-549 breast
HS 578T breast = system: HS 578T breast
NCI-H322M lung = system: NCI-H322M lung
A498 renal = system: A498 renal
NCI-H460 NSCLC = system: NCI-H460 NSCLC
SNB-75 CNS = system: SNB-75 CNS
T-47D breast = system: T-47D breast
SN12C renal = system: SN12C renal
CCRF-CEM leukemia = system: CCRF-CEM leukemia
DU-145 prostate = system: DU-145 prostate
TK-10 renal = system: TK-10 renal
RXF 393 renal = system: RXF 393 renal
HOP-92 NSCLC = system: HOP-92 NSCLC
786-0 renal = system: 786-0 renal
MOLT-4 leukemia = system: MOLT-4 leukemia
U251 glioblastoma = system: U251 glioblastoma
SK-MEL-5 melanoma = system: SK-MEL-5 melanoma
SF-295 CNS = system: SF-295 CNS
SF-539 CNS = system: SF-539 CNS
SF-268 CNS = system: SF-268 CNS
SW-620 colon = system: SW-620 colon
MDA-MB-435 melanoma = system: MDA-MB-435 melanoma
NCI-H522 lung = system: NCI-H522 lung
A549 NSCLC = system: A549 NSCLC
HCC-2998 colon = system: HCC-2998 colon
NCI/ADR-RES ovarian = system: NCI/ADR-RES ovarian
MALME-3M melanoma = system: MALME-3M melanoma
HT29 colon = system: HT29 colon
ACHN renal = system: ACHN renal
OVCAR-8 ovarian = system: OVCAR-8 ovarian
SK-MEL-28 melanoma = system: SK-MEL-28 melanoma
SNB-19 CNS = system: SNB-19 CNS
CAKI-1 renal = system: CAKI-1 renal
IGROV1 ovarian = system: IGROV1 ovarian
UACC-62 melanoma = system: UACC-62 melanoma
M14 melanoma = system: M14 melanoma
PC-3 prostate = system: PC-3 prostate
COLO 205 colon = system: COLO 205 colon
MCF7 breast = system: MCF7 breast
MDA-MB-231 breast = system: MDA-MB-231 breast
SK-OV-3 ovarian = system: SK-OV-3 ovarian
EKVX NSCLC = system: EKVX NSCLC
HL-60(TB) leukemia = system: HL-60(TB) leukemia
KM12 colon = system: KM12 colon
NCI-H226 lung = system: NCI-H226 lung
UACC-257 melanoma = system: UACC-257 melanoma
HOP-62 NSCLC = system: HOP-62 NSCLC
SR leukemia = system: SR leukemia
MDA-MB-468 breast = system: MDA-MB-468 breast
OVCAR-5 ovarian = system: OVCAR-5 ovarian
HCT-15 colon = system: HCT-15 colon
OVCAR-3 ovarian = system: OVCAR-3 ovarian

## Nc1nc(N)c(N=O)c(OCC2CCCCC2)n1
OVCAR-4 ovarian
  GI50: 19.2 µM
  TGI: 49.3 µM
NCI-H23 lung
  GI50: 15.6 µM
  TGI: 46.6 µM
RPMI-8226 leukemia
  GI50: 4.88 µM
  TGI: 13.9 µM
BT-549 breast
  GI50: 5.63 µM
  TGI: 26.1 µM
HS 578T breast
  GI50: 4.02 µM
  TGI: 16.2 µM
NCI-H322M lung
  GI50: 24.6 µM
  TGI: > 100 µM
A498 renal
  GI50: 5.34 µM
  TGI: 25.3 µM
NCI-H460 NSCLC
  GI50: 4.94 µM
  TGI: 26.7 µM
SNB-75 CNS
  GI50: 4.38 µM
  TGI: 19.7 µM
T-47D breast
  GI50: 6.41 µM
  TGI: 33.1 µM
SN12C renal
  GI50: 13.6 µM
  TGI: 57.1 µM
CCRF-CEM leukemia
  GI50: 4.9 µM
  TGI: 17 µM
DU-145 prostate
  GI50: 13.2 µM
  TGI: > 100 µM
TK-10 renal
  GI50: 7.67 µM
  TGI: 30 µM
RXF 393 renal
  GI50: 5.32 µM
  TGI: 27.1 µM
HOP-92 NSCLC
  GI50: 9.41 µM
  TGI: 36.9 µM
786-0 renal
  GI50: 23.9 µM
  TGI: > 100 µM
MOLT-4 leukemia
  GI50: 5.83 µM
  TGI: 17.9 µM
U251 glioblastoma
  GI50: 17.2 µM
  TGI: 58.8 µM
SK-MEL-5 melanoma
  GI50: 17.1 µM
  TGI: 46.5 µM
SF-295 CNS
  GI50: 26 µM
  TGI: 87 µM
SF-539 CNS
  GI50: 18.5 µM
  TGI: 67.1 µM
SF-268 CNS
  GI50: 21.2 µM
  TGI: 78.7 µM
SW-620 colon
  GI50: 45.9 µM
  TGI: > 100 µM
MDA-MB-435 melanoma
  GI50: 25.4 µM
  TGI: > 100 µM
NCI-H522 lung
  GI50: 5.92 µM
  TGI: 25.1 µM
A549 NSCLC
  GI50: 17.6 µM
  TGI: 64.1 µM
HCC-2998 colon
  GI50: 15.1 µM
  TGI: > 100 µM
NCI/ADR-RES ovarian
  GI50: 30.6 µM
  TGI: > 100 µM
MALME-3M melanoma
  GI50: 8.62 µM
  TGI: 41.9 µM
HT29 colon
  GI50: 19.3 µM
  TGI: 90.6 µM
ACHN renal
  GI50: 27.3 µM
  TGI: 85.9 µM
OVCAR-8 ovarian
  GI50: 32.9 µM
  TGI: > 100 µM
SK-MEL-28 melanoma
  GI50: 22.3 µM
  TGI: 97.1 µM
SNB-19 CNS
  GI50: 31.1 µM
  TGI: > 100 µM
CAKI-1 renal
  GI50: 8.55 µM
  TGI: 31.6 µM
IGROV1 ovarian
  GI50: 4.21 µM
  TGI: 18.1 µM
UACC-62 melanoma
  GI50: 14.5 µM
  TGI: 38.7 µM
M14 melanoma
  GI50: 11.4 µM
  TGI: 79 µM
PC-3 prostate
  GI50: 7.78 µM
  TGI: 49.4 µM
COLO 205 colon
  GI50: 23.6 µM
  TGI: 56 µM
MCF7 breast
  GI50: 5.22 µM
  TGI: 91.6 µM
MDA-MB-231 breast
  GI50: 10.9 µM
  TGI: 66 µM
SK-OV-3 ovarian
  GI50: 15 µM
  TGI: 37.6 µM
EKVX NSCLC
  GI50: 22.3 µM
  TGI: 70.3 µM
HL-60(TB) leukemia
  GI50: 15 µM
  TGI: 32.8 µM
KM12 colon
  GI50: 21.4 µM
  TGI: > 100 µM
NCI-H226 lung
  GI50: 10.9 µM
  TGI: 54.1 µM
UACC-257 melanoma
  GI50: 23.6 µM
  TGI: > 100 µM
HOP-62 NSCLC
  GI50: 4.57 µM
  TGI: 24.7 µM
SR leukemia
  GI50: 3.46 µM
  TGI: 8.82 µM
MDA-MB-468 breast
  GI50: 3.29 µM
  TGI: 10.8 µM
OVCAR-5 ovarian
  GI50: 17.2 µM
  TGI: 82.2 µM
HCT-15 colon
  GI50: 5.06 µM
  TGI: > 100 µM
OVCAR-3 ovarian
  GI50: 17.1 µM
  TGI: > 100 µM
